Measurements as given in BindingDB's records for doi:10.1021/jm00067a022 (Syntex Discovery Research, 1993).
pKi: −log10 of the molar value.

Test: Inhibition of lanosterol 14-alpha-demethylase in hamster hepatic microsomes

SMILES: CC(=O)N1CCN(c2ccc(OC[C@@H]3CO[C@@](Cn4ccnc4)(c4ccc(Cl)cc4Cl)O3)cc2)CC1 [Nizoral]
- pKi: 7.60
